Reference: PubChem BioAssay (NCI)
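Grown in 96-well plates, cells were treated for 48 hours with each compound at five concentrations. Insufficient inhibition: endpoint recorded as highest concentration tested. GI50 marks 50% less growth. TGI denotes the concentration required for complete inhibition of growth.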

Assays:
Test in all cases: DTP human tumour cell line panel, 48 h
[1] = test system: SF-539 CNS
[2] = test system: NCI/ADR-RES ovarian
[3] = test system: NCI-H460 lung
[4] = test system: OVCAR-5 ovarian
[5] = test system: SF-268 CNS
[6] = test system: HOP-62 NSCLC
[7] = test system: K-562 leukemia
[8] = test system: SNB-75 CNS
[9] = test system: EKVX NSCLC
[10] = test system: MDA-N

SMILES	TGI [1]	TGI [2]	TGI [3]	TGI [4]	TGI [5]	TGI [6]	TGI [7]	TGI [8]	TGI [9]	GI50 [1]	GI50 [2]	GI50 [3]	GI50 [4]	GI50 [5]	GI50 [6]	GI50 [7]	GI50 [8]	GI50 [9]	TGI [10]
COc1ccc(C2COc3cc(OC(C)=O)c(OC(C)=O)cc3C2)cc1 (centres undefined)	37.8 µM	101 µM	41.7 µM	51.7 µM	37 µM	67.4 µM	80 µM	25.8 µM	51.1 µM	–	–	–	–	–	–	–	–	–	–
CN(C)CCCNC(=O)c1cc2[nH]c3c(cnc4ccc([N+](=O)[O-])cc43)c(=O)c2n1C	31.7 µM	49.6 µM	26 µM	31.6 µM	29.4 µM	30.9 µM	33.1 µM	28.9 µM	52.3 µM	17.6 µM	22 µM	13.3 µM	17.8 µM	15.9 µM	17.2 µM	15.8 µM	15.5 µM	23.5 µM	–
O=Cc1cn(CCCCCCCCCCCCn2cc(C=O)c3ccccc32)c2ccccc12	> 100 µM	> 100 µM	–	> 100 µM	> 100 µM	> 100 µM	> 100 µM	–	> 100 µM	–	–	–	–	–	–	–	–	–	> 100 µM
CCCCCCCCCC1(N=[N+]=[N-])C(=O)c2ccccc2N(C)C1=O (centres undefined)	> 100 µM	> 100 µM	> 100 µM	82.9 µM	> 100 µM	> 100 µM	> 100 µM	> 100 µM	–	–	–	–	–	–	–	–	–	–	79.1 µM
CC(C)(C)[Si](C)(C)OCC1OC(n2ccc(N)nc2=O)C(O[Si](C)(C)C(C)(C)C)C1O[Si](C)(C)C(C)(C)C (centres undefined)	–	> 100 µM	3.7 µM	3.58 µM	7.27 µM	4.85 µM	–	14.2 µM	9.83 µM	–	–	–	–	–	–	–	–	–	13 µM
CCCC(=O)n1[nH]c(=O)n(-c2ccc(Cl)cc2)c1=O	–	> 100 µM	> 100 µM	> 100 µM	> 100 µM	> 100 µM	> 100 µM	> 100 µM	> 100 µM	–	–	–	–	–	–	–	–	–	> 100 µM
Oc1c(C2=NNC(c3ccc(Cl)cc3Cl)C2)ccc2ccccc12 (centres undefined)	> 100 µM	83.3 µM	> 100 µM	> 100 µM	> 100 µM	> 100 µM	76.9 µM	> 100 µM	–	–	–	–	–	–	–	–	–	–	55.5 µM
CCCCN(CCCC)CC(O)c1cc(-c2ccc(C(F)(F)F)cc2)nc(-c2ccc(C(F)(F)F)cc2)c1 (centres undefined)	> 100 µM	> 100 µM	> 100 µM	> 100 µM	> 100 µM	> 100 µM	> 100 µM	> 100 µM	> 100 µM	–	–	–	–	–	–	–	–	–	–
CC(C)(C)NC(NC(C)(C)C)=C(/C=C(/Cl)[N+](=O)[O-])[N+](=O)[O-]	> 100 µM	–	> 100 µM	> 100 µM	> 100 µM	> 100 µM	> 100 µM	87.2 µM	> 100 µM	–	–	–	–	–	–	–	–	–	59.5 µM
O=C1C2CC=CCC2C(=O)N1n1c(Cc2ccc(Cl)cc2)n[nH]c1=O (centres undefined)	–	> 100 µM	–	> 100 µM	> 100 µM	> 100 µM	> 100 µM	> 100 µM	> 100 µM	–	–	–	–	–	–	–	–	–	> 100 µM
COC(=O)c1cc2c3c(ccc2[nH]1)N(C(=O)c1cc2cc(OC)c(OC)c(OC)c2[nH]1)CC3CCl (centres undefined)	> 79.2 µM	> 91.8 µM	> 100 µM	> 100 µM	> 100 µM	> 72 µM	–	> 100 µM	> 100 µM	–	–	–	–	–	–	–	–	–	–
Nc1ccc(Oc2ccc(C34CC5CC6C3CC3CC4C(C5)C6(c4ccc(Oc5ccc(N)cc5)cc4)C3)cc2)cc1	–	> 100 µM	61.2 µM	> 100 µM	> 72 µM	53.6 µM	40.5 µM	–	> 77.8 µM	–	–	–	–	–	–	–	–	–	19.1 µM
O=C1C(Cl)N(c2ccc(Cl)cc2)C1c1c[nH]c2ccccc12 (centres undefined)	37.2 µM	–	30.1 µM	–	> 100 µM	33.7 µM	73.3 µM	> 100 µM	32.5 µM	–	–	–	–	–	–	–	–	–	–
CN=c1nc2sc3c(c2c(NC(=S)NC)s1)CCCC3	–	–	> 100 µM	> 100 µM	87.5 µM	> 100 µM	> 100 µM	–	> 100 µM	–	–	–	–	–	–	–	–	–	> 100 µM
O=C(O)c1ccc(Nc2c3ccccc3nc3ccccc23)cc1	> 100 µM	> 100 µM	> 100 µM	> 100 µM	> 100 µM	> 100 µM	> 100 µM	> 100 µM	> 100 µM	–	–	–	–	–	–	–	–	–	–
CCOc1cc2c(OCc3ccccc3)cc3c4cc(OC)c(OC)cc4c[n+](C)c3c2cc1OC	5.43 µM	> 100 µM	> 58.9 µM	44 µM	4.91 µM	19.6 µM	> 42.6 µM	> 100 µM	> 100 µM	–	–	–	–	–	–	–	–	–	–
CS(=O)(=O)O[C@H]1CN2C[C@@H](O)[C@@H](O)[C@H]2[C@H]1CO	> 100 µM	> 100 µM	> 100 µM	> 100 µM	> 100 µM	> 100 µM	> 100 µM	–	> 100 µM	–	–	–	–	–	–	–	–	–	–
COc1cccc2c1OC(c1ccc(Cl)cc1)C([N+](=O)[O-])=C2 (centres undefined)	–	39.5 µM	4.92 µM	7.84 µM	13.9 µM	4.89 µM	24.3 µM	–	24.2 µM	–	–	–	–	–	–	–	–	–	3.45 µM

SMILES	TGI [1]	TGI [2]	TGI [3]	TGI [4]	TGI [5]	TGI [6]	TGI [7]	TGI [8]	TGI [9]	GI50 [1]	GI50 [2]	GI50 [3]	GI50 [4]	GI50 [5]	GI50 [6]	GI50 [7]	GI50 [8]	GI50 [9]	TGI [10]
CCCC[C@@H]1CCN2C[C@@H](O)[C@@H](O)[C@@H]2[C@H]1O	> 100 µM	> 100 µM	> 100 µM	> 100 µM	> 100 µM	–	> 100 µM	> 100 µM	> 100 µM	–	–	–	–	–	–	–	–	–	> 100 µM
CN(C(=O)C1=CCC2(CC1)OCCO2)c1ccccc1OS(=O)(=O)C(F)(F)F	–	> 100 µM	> 100 µM	> 100 µM	97.6 µM	> 100 µM	> 100 µM	79.5 µM	> 100 µM	–	–	–	–	–	–	–	–	–	> 100 µM
Nc1ccc2c(c1)N(C(=O)c1cc3cc(NC(=O)c4cc5ccccc5o4)ccc3[nH]1)CC2CCl (centres undefined)	–	0.338 µM	> 32.8 µM	> 38.3 µM	–	0.804 µM	–	0.469 µM	–	–	–	–	–	–	–	–	–	–	0.512 µM
OC1(C(F)(F)F)OCCN=C1C(F)(F)F (centres undefined)	–	> 100 µM	> 100 µM	> 100 µM	> 100 µM	> 100 µM	> 100 µM	> 100 µM	> 100 µM	–	–	–	–	–	–	–	–	–	> 100 µM
CCc1cc2c(oc3cc4ccccc4cc32)c(=O)[nH]1	> 10 µM	> 10 µM	> 10 µM	> 10 µM	> 10 µM	–	–	> 10 µM	> 10 µM	–	–	–	–	–	–	–	–	–	> 10 µM
COc1ccc(N2C(=O)/C(=C(\C)c3cc4ccccc4oc3=O)N=C2c2cc([N+](=O)[O-])ccc2Cl)cc1	> 100 µM	–	> 100 µM	> 100 µM	> 100 µM	> 100 µM	> 100 µM	> 100 µM	> 100 µM	–	–	–	–	–	–	–	–	–	–
CC(C)C(=O)[C@@]1(C)SC[C@H]2CCN=C21	> 100 µM	> 100 µM	> 100 µM	> 100 µM	–	–	> 100 µM	–	> 100 µM	–	–	–	–	–	–	–	–	–	> 100 µM
CN(CC(=O)O)c1ncc2c(n1)-c1ccccc1SC2	> 100 µM	> 100 µM	> 100 µM	> 100 µM	> 100 µM	–	–	> 100 µM	> 100 µM	–	–	–	–	–	–	–	–	–	> 100 µM
CCN(CC)CC1CCCCCCCCCCC1=O (centres undefined)	–	–	> 100 µM	> 100 µM	> 100 µM	> 100 µM	> 100 µM	> 100 µM	> 100 µM	–	–	–	–	–	–	–	–	–	–
COC(=O)CCC1=CCC2(SC)C(=O)Nc3cccc1c32 (centres undefined)	> 100 µM	> 100 µM	> 100 µM	> 100 µM	> 100 µM	> 100 µM	–	> 100 µM	> 100 µM	–	–	–	–	–	–	–	–	–	–
CCOC(=O)c1c(-c2ccc(OC)cc2)c(C#N)c(=S)n(C2OC(COC(C)=O)C(OC(C)=O)C(OC(C)=O)C2OC(C)=O)c1-c1ccccc1 (centres undefined)	> 100 µM	> 100 µM	> 100 µM	> 100 µM	> 100 µM	> 100 µM	> 100 µM	> 100 µM	–	–	–	–	–	–	–	–	–	–	> 100 µM
CC(C)(C)OC(=O)N1CCc2[nH][nH]c(=O)c2C1	> 100 µM	> 100 µM	> 100 µM	–	> 100 µM	> 100 µM	> 100 µM	–	> 100 µM	–	–	–	–	–	–	–	–	–	> 100 µM
CC1(C)CC(=O)c2[nH]c3ccccc3c2CC(=O)NCCc2cn1cn2	> 100 µM	> 100 µM	> 100 µM	> 100 µM	> 100 µM	–	> 100 µM	> 100 µM	> 100 µM	–	–	–	–	–	–	–	–	–	> 100 µM
O=c1[nH]c2c(nc1NC13CC4CC(CC(C4)C1)C3)c(=O)oc1ccccc12	35.8 µM	–	> 100 µM	> 100 µM	> 100 µM	> 100 µM	> 100 µM	> 100 µM	> 100 µM	–	–	–	–	–	–	–	–	–	–
C=C(CCC/C(C)=C/C=C/[C@]1(C)CCCc2ccoc21)CC(=O)O	> 100 µM	> 100 µM	> 100 µM	> 100 µM	> 100 µM	> 100 µM	> 100 µM	> 100 µM	> 100 µM	–	–	–	–	–	–	–	–	–	–
COc1cc(C2SCC(=O)N2c2ccccn2)cc(OC)c1OC (centres undefined)	> 100 µM	> 100 µM	> 100 µM	> 100 µM	> 100 µM	–	> 100 µM	–	> 100 µM	–	–	–	–	–	–	–	–	–	41.6 µM
O=C(NC(Cc1c[nH]c2ccccc12)C(=O)Nc1ccc(Br)cc1)OCc1ccccc1 (centres undefined)	29.2 µM	54.3 µM	20.1 µM	35.1 µM	37.7 µM	23.7 µM	51.3 µM	34.7 µM	22.3 µM	–	–	–	–	–	–	–	–	–	–
